Results published in ChEMBL document CHEMBL1152310, “A Dimeric sesquiterpenoid from a Malaysian Meiogyne as a new inhibitor of Bcl-xL/BakBH3 domain peptide interaction” (J Nat Prod, 2009).

System: KB
Test: Cytotoxicity against human KB cells
Format: functional, cell-based

How did the IC50 turn out when `CC(C)=CCC[C@@H](C)[C@H]1C=C[C@@]2(C(=O)O)[C@H](CC(C)=C[C@@H]2/C=C(\C)C2CCC(C(=O)O)CC2)C1` (stereo partly specified) [MEIOGYNIN A] was run?
The IC50 was 4 µM.
